Measurements taken from ChEMBL document CHEMBL1127748, “Binding of fluorescent and spin-labeled C-terminal hirudin analogs to thrombin” (J Med Chem, 1994).

Tests used:
Prothrombin [1] = biological target: T1, Prothrombin (Homo sapiens, UniProt P00734); experiment: Binding affinity values determined by clotting inhibition assays
Prothrombin [2] = biological target: T1, Prothrombin; experiment: Inhibitory concentration against Thrombin; 0.029-0.15 uM

Row | Ki (Prothrombin [1]) [nM] | IC50 (Prothrombin [2]) [nM] | Compound
1 | 100 |  | CC[C@H](C)[C@H](NC(=O)[C@H]1CCCN1C(=O)[C@H](CCC(=O)O)NC(=O)[C@@H](Cc1ccc(O)cc1)NC(=O)CC(N)C(=O)CCCCCCCNc1cccc2c(N(C)C)cccc12)C(=O)N1CCC[C@@H]1C(=O)N[C@@H](CCC(=O)O)C(=O)N[C@H](CCC(=O)O)C(=O)N[C@@H](C)C(=O)N[C@H](CC1CCCCC1)C(=O)N[C@@H](CCC(=O)O)C(=O)O (some centres undefined)
2 | 100 |  | CC[C@H](C)[C@H](NC(=O)[C@H]1CCCN1C(=O)[C@H](CCC(=O)O)NC(=O)[C@@H](Cc1ccc(O)cc1)NC(=O)CC(N)C(=O)CCCCCCCNC(=O)C1=CC(C)(C)N(O)C1(C)C)C(=O)N1CCC[C@@H]1C(=O)N[C@@H](CCC(=O)O)C(=O)N[C@H](CCC(=O)O)C(=O)N[C@@H](C)C(=O)N[C@H](CC1CCCCC1)C(=O)N[C@@H](CCC(=O)O)C(=O)O (some centres undefined)
3 |  | 29 | CC[C@H](C)[C@H](NC(=O)[C@H]1CCCN1C(=O)[C@H](CCC(=O)O)NC(=O)[C@@H](Cc1ccc(O)cc1)NC(=O)CCC(=O)O)C(=O)N1CCC[C@@H]1C(=O)N[C@@H](CCC(=O)O)C(=O)N[C@H](CCC(=O)O)C(=O)N[C@@H](C)C(=O)N[C@H](CC1CCCCC1)C(=O)N[C@@H](CCC(=O)O)C(=O)O
4 | 100 |  | CC[C@H](C)[C@H](NC(=O)[C@H]1CCCN1C(=O)[C@H](CCC(=O)O)NC(=O)[C@@H](Cc1ccc(O)cc1)NC(=O)CC(N)C(=O)CCCCCCCNC(=O)c1ccccc1N)C(=O)N1CCC[C@@H]1C(=O)N[C@@H](CCC(=O)O)C(=O)N[C@H](CCC(=O)O)C(=O)N[C@@H](C)C(=O)N[C@H](CC1CCCCC1)C(=O)N[C@@H](CCC(=O)O)C(=O)O (some centres undefined)
